Assay results published in PMC3542062, “A phenyl-thiadiazolylidene-amine derivative ejects zinc from retroviral nucleocapsid zinc fingers and inactivates HIV virions” (Retrovirology, 2012).

Tests used:
NL4.3/DS5000R = test: GFP-assay in Jurkat A72 (LTR-GFP) cells; assay type: cell-based, HIV-1; settings: Human immunodeficiency virus 1, Jurkat, 72 h, read-out: EC50 NL4.3/DS5000R
UG275 subtype A = test: Virucidal assay on clinical isolates, titration on PBMCs; assay type: cell-based, HIV-1; settings: 125 μM, 1 h 37°C, untreated control 16242
[1] = system: HIV-1 NL4.3 capture by Raji/DC-SIGN cells; test: HIV capture by Raji/DC-SIGN cells (procedure A), p24 ELISA; settings: HIV pretreated 1 h with compound, then Raji/DC-SIGN cells; p24 of washed cell pellet
Description: After 60 minutes of pre-incubation with the Raji/DC-SIGN cells, unabsorbed virus and test compound were carefully removed by repeated washing steps, and the amount of captured virus was determined by measurement of the virus-associated p24 content on the Raji/DC-SIGN cell surface. The α(1-3)/(1-6)-mannose-specific plant lectin HHA was included as a positive control for inhibition of virus capture by Raji/DC-SIGN cells.
Then, 0.5 ml exponentially growing Raji/DC-SIGN cells (10^6 cells) was added, and the suspension further incubated at 37°C for 60 minutes. Subsequently, 39 ml medium was added and the cell suspension was centrifuged at 300 g for 10 minutes. The obtained pellet was washed again with 40 ml medium and after centrifugation, the cell pellet (containing DC-SIGN-bound virus) was analyzed for p24 antigen content by ELISA. […] In the above-described experiments, the mannose-binding entry inhibitor HHA was included as a reference compound.

HIV-2 ROD [2] = test: GFP-assay in Jurkat A72 (LTR-GFP) cells; assay type: cell-based; settings: Human immunodeficiency virus 2, 72 h, 3 days after infection
NL4.3/AMD3100R = test: microbe, parasite or virus in culture; assay type: cell-based, HIV-1; settings: Human immunodeficiency virus 1, Jurkat, 72 h, read-out: EC50 NL4.3/AMD3100R
HSV = test: Activity against replication of non-retroviruses; assay type: cell-based
HIV-2 ROD [3] = test: Virucidal assay: virus pre-incubated with compound, diluted, titrated on MT-4 cells; settings: for CCID50/ml HIV-2 ROD: no drug 5.4 × 10^6
HIV-1 IIIB [4] = test: GFP-assay in Jurkat A72 (LTR-GFP) cells; assay type: cell-based; settings: Human immunodeficiency virus 1, IIIB, 72 h, 3 days after infection
[5] = system: HIV-1 NL4.3 transmission from Raji/DC-SIGN cells to C8166 cells; test: Transmission of DC-SIGN-captured pretreated virus to C8166 cells (procedure B); assay type: cell-based; settings: Human immunodeficiency virus 1; Raji/DC-SIGN exposed to compound-pretreated (1 h) HIV, compound removed, cocultured with C8166
CMV = test: Activity against replication of non-retroviruses; assay type: cell-based
UG270 subtype D = test: Virucidal assay on clinical isolates, titration on PBMCs; assay type: cell-based, HIV-1; settings: 125 μM, 1 h 37°C, untreated control 25781
BCF-Dioum subtype G = test: as above; assay type: cell-based, HIV-1; settings: 125 μM, 1 h 37°C, untreated control 25781
NC(11-55) = test: Zinc ejection monitored by supramolecular mass spectrometry; assay type: biochemical, HIV-1; settings: non-denaturing MS, Vc = 20 V, Pi = 6 mbar
Description: Purity and homogeneity of NC(11-55) were verified by mass analysis in denaturing conditions. In these acidic conditions, zinc is released from the peptide; and a molecular weight of 5137. 7 ± 0.4 Da was measured, in agreement with the expected mass of the zinc-free NC form (5137.9 Da). […] This is in contrast to the earlier discovered DIBA zinc ejectors for which the Zn ejection is accompanied by the formation of covalent complexes formed between the compound and Cys residues of Zn-depleted NCp7 [25].
Figure 5 Zinc ejection as monitored by mass spectrometry. […] Under non-denaturing conditions (Vc = 20 V, Psi = 6 mbar), the mass measured for NCp7(11-55) alone is 5264.0 Da corresponding to the NC peptide complexed with two zinc ions.
Before mass spectrometry (MS) analysis, NC(11-55) was dissolved and buffer exchanged with 50 mM ammonium acetate pH 7.0 using 4 cycles of microcentrifuge size exclusion filtering (Vivaspin 500 5kD, Sartorius Stedim biotech, Aubagne, France) and peptide concentration was measured by a Bradford assay. […]
Analyses under non-denaturing conditions were carried out after careful optimization of instrumental settings to avoid dissociation of noncovalent bonds and obtain sensible detection of protein/zinc complexation states. […] Peak intensities were used to estimate the ratios of the different ions detected.

VSV = assay type: cell-based
HIV-1 IIIB [6] = test: Anti-HIV activity in CEM cells (cytopathogenicity); assay type: cell-based; settings: Human immunodeficiency virus 1, IIIB, CCRF-CEM
[7] = system: HIV-1 NL4.3 transmission from Raji/DC-SIGN cells to C8166 cells; test: Transmission of DC-SIGN-captured virus to C8166 cells in presence of compound (procedure C); assay type: cell-based; settings: Human immunodeficiency virus 1; HIV-captured Raji/DC-SIGN cocultivated with C8166 in presence of compound; giant cell formation

With `Cn1sc(=N)nc1-c1ccccc1` [WDO-217, 2-methyl-3-phenyl-2H-[1,2,4]thiadiazol-5-ylideneamine] the EC50 (NL4.3/DS5000R) was 1200 ± 100 nM, the “CCID50/ml UG275 subtype A” value (UG275 subtype A) was 2558 CCID50/ml and the “IC50 HIV-capture procedure A” value [1] was “not able to prevent binding”. The EC50 (HIV-2 ROD [2]) was 1040 ± 300 nM, the EC50 (NL4.3/AMD3100R) was 1700 ± 900 nM and the “activity against replication of HSV” value (HSV) was “inactive”. For the same compound, the “CCID50/ml HIV-2 ROD” value (HIV-2 ROD [3]; virus incubated 1 h 37°C with 0.2 μM) was 1.6 × 10^6 CCID50/ml, the “CCID50/ml HIV-2 ROD” value (HIV-2 ROD [3]; virus incubated 1 h 37°C with 1 μM) was 1 × 10^6 CCID50/ml and the “CCID50/ml HIV-2 ROD” value (HIV-2 ROD [3]; virus incubated 1 h 37°C with 5 μM) was 2.1 × 10^6 CCID50/ml. The “CCID50/ml HIV-2 ROD” value (HIV-2 ROD [3]; virus incubated 1 h 37°C with 25 μM) was 0 CCID50/ml, the “CCID50/ml HIV-2 ROD” value (HIV-2 ROD [3]; virus incubated 1 h 37°C with 625 μM) was 0 CCID50/ml and the “Infectivity of pre-incubated HIV-2 virus” value (HIV-2 ROD [3]; virus incubated at 26, 130 and 650 μM, 1 h 37°C) was “no longer able to infect cells”. For the same compound, the EC50 (HIV-1 IIIB [4]) was 1040 ± 200 nM, the IC50 [5] was 2200 ± 1000 nM and the “activity against replication of CMV” value (CMV) was “inactive”. The “CCID50/ml UG270 subtype D” value (UG270 subtype D) was 6446 CCID50/ml, the “CCID50/ml BCF-Dioum subtype G” value (BCF-Dioum subtype G) was 2558 CCID50/ml and the “covalent complex between NC(11-55) and compound” value (NC(11-55)) was “no covalent complex”. For the same compound, the “activity against replication of VSV” value (VSV) was “inactive”, the EC50 (HIV-1 IIIB [6]) was 8300 ± 1800 nM and the IC50 [7] was 8300 ± 400 nM.
